Converted amounts (≈) assume the structure as drawn.

The values that follow come from ChEMBL document CHEMBL5241056, “Engagement of phytoestrogens in breast cancer suppression: Structural classification and mechanistic approach” (Eur J Med Chem, 2021).

Series [1] relates to MCF7. The series can be described thus: Antiproliferative activity against human MCF7 cells assessed as inhibition of cell growth incubated for 6 days by SRB assay. The series is classed as functional, cell-based. The following applies: MCF7, 144 h.
The target in series [2] is T1, Steryl-sulfatase (Rattus norvegicus, UniProt P15589).
T1 sequence (P15589 whole entry): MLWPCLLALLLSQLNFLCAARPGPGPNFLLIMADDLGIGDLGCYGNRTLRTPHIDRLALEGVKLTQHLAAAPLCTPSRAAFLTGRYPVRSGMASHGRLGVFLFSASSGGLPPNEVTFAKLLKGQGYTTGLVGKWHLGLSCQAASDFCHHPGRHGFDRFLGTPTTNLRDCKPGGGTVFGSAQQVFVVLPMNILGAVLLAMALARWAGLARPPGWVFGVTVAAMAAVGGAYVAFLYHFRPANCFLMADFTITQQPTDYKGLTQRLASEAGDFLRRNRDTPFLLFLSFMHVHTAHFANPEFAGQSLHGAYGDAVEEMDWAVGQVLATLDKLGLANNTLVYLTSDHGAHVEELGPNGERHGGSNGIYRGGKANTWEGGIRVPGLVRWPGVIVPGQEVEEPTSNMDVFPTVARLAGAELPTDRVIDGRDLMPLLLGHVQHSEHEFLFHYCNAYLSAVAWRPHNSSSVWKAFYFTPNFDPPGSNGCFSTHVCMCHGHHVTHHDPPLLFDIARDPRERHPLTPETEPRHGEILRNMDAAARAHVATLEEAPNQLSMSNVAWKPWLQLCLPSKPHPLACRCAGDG
Briefly: Inhibition of estrone sulfatase in homogeneous rat mammary tumors. The series is classed as tissue-based, Tumor.

In series [3] the target is T2, Steryl-sulfatase (Homo sapiens, UniProt P08842).
T2 sequence (P08842 whole entry): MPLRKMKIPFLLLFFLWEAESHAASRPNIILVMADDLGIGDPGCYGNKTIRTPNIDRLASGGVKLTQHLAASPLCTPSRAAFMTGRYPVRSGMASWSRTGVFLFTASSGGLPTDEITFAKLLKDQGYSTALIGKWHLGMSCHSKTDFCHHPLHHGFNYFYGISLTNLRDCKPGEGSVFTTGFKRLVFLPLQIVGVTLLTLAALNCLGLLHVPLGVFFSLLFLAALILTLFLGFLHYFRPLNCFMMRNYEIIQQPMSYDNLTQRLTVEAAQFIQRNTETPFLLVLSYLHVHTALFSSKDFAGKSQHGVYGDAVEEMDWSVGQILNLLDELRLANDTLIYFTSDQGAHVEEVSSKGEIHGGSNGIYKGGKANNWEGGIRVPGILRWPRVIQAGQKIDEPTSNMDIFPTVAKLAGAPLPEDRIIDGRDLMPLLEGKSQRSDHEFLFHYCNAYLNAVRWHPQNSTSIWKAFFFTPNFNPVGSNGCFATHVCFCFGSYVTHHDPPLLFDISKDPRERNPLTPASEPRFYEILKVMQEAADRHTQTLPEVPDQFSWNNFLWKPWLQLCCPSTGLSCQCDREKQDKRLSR
Briefly: Inhibition of estrone sulfatase in human MCF7 cell microsomes. More on the design: species or system Microsome.

Series [4] is described as follows: Cytotoxicity against human MCF-10A cells assessed as inhibition of cell growth incubated for 24 to 96 hrs by MTT assay. The series is classed as toxicity, cell-based.
The subject of a further series is MDA-MB-231. The series can be described thus: Antiproliferative activity against human MDA-MB-231 cells assessed as inhibition of cell growth incubated for 24 to 96 hrs by MTT assay. The series is classed as functional, cell-based.
For series [5], the system named is MCF7. The series can be described thus: Antiproliferative activity against human MCF7 cells assessed as inhibition of cell growth incubated for 3 days by beta scintillation counting based [3H]-thymidine incorporation assay. The series is classed as functional.
Series [6] in a line: Cytotoxicity against human MCF-10A cells assessed as inhibition of cell growth by MTT assay. The class given is toxicity, cell-based.
Another series deals with MDA-MB-468. The series can be described thus: Antiproliferative activity against human MDA-MB-468 cells assessed as inhibition of cell growth by MTT assay. The class given is functional, cell-based.
Series [7] concerns MCF7. Briefly: Antiproliferative activity against human MCF7 cells assessed as inhibition of cell growth incubated for 2 days by SRB assay. The series is classed as functional, cell-based. The following applies: MCF7, 48 h.
Series [8] relates to MCF7. The series can be described thus: Antiproliferative activity against human MCF7 cells assessed as inhibition of cell growth incubated for 4 days by SRB assay. The class given is functional, cell-based. The following applies: MCF7, 96 h.
The nature of series [9]: Oral bioavailability in CD rat at 50 mg/kg administered daily for 14 days. The class given is ADME, organism-based. The following applies: in vivo, time 14 day.
The target in the next series is T3, Sulfotransferase 2A1 (Rattus norvegicus, UniProt P15709).
T3 sequence (P15709 whole entry): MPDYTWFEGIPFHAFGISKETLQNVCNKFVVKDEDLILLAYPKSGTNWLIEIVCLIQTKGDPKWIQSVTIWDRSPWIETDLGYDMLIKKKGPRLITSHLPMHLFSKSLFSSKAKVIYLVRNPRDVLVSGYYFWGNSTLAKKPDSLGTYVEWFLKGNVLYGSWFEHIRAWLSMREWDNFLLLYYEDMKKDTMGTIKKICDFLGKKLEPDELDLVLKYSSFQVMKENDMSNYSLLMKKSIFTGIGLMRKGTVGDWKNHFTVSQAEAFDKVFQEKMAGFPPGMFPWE
The series can be described thus: Inhibition of rat SULT2A1-mediated dehydroepiandrosterone sulfonation incubated for 20 mins.

The target of a further series is Sulfotransferase 1A1 (Rattus norvegicus, UniProt P17988). Briefly: Inhibition of rat liver SULT1A1-mediated oestradiol sulfonation incubated for 20 mins.
Sulfotransferase 1A1, sequence (P17988 whole entry): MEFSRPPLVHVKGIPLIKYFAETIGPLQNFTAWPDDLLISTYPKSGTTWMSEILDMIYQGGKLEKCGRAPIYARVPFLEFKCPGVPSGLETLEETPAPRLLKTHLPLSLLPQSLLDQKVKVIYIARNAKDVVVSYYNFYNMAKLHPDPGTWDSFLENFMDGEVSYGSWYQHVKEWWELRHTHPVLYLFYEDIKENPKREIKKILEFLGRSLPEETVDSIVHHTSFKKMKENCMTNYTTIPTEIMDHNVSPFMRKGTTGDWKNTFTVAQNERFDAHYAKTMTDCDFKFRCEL
The target of a further series is T4, Estrogen receptor (Bos taurus, UniProt P49884).
T4 sequence (P49884 whole entry): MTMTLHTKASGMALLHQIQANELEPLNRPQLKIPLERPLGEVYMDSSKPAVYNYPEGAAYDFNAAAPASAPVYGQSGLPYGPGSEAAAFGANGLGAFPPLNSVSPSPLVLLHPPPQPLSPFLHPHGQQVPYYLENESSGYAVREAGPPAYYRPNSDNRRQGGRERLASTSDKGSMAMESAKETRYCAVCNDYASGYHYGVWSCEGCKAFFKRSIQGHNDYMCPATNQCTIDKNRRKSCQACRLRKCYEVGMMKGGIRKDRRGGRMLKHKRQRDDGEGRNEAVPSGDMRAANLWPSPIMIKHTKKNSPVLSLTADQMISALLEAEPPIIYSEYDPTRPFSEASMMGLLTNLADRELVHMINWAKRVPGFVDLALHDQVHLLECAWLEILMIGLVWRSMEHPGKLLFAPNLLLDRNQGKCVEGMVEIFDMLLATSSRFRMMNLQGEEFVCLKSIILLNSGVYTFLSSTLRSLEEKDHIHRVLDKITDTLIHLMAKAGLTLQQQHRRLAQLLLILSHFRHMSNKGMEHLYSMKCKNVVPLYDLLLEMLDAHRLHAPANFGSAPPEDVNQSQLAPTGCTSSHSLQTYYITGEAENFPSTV
Briefly: Displacement of [3H]-17beta-estradiol from bovine uterine estrogen receptor by competitive binding assay.

A short description of series [10]: Oral bioavailability in CD rat at 168 mg/kg administered daily for 14 days. The series is classed as ADME, organism-based. The following applies: in vivo, time 14 day.
The test system of series [11] is MCF7. Briefly: Inhibition of DNA synthesis in human MCF7 cells incubated for 4 days by BrdU incorporation assay. The class given is functional, cell-based. The following applies: MCF7, 96 h.
The subject of series [12] is MCF7. Briefly: Antiproliferative activity against human MCF7 cells assessed as inhibition of cell growth incubated for 2 days by WST-1 assay. The series is classed as functional, cell-based. The following applies: MCF7, 48 h.
In series [13] the test system is MCF7. Briefly: Antiproliferative activity against human MCF7 cells assessed as inhibition of cell growth incubated for 0 to 5 days by MTT assay. The series is classed as functional, cell-based.

Take `O=c1cc(-c2ccc(O)cc2)oc2cc(O)cc(O)c12` [APIGENIN]: the half-maximal inhibitory concentration (IC50) in the series on MCF7 [1] stood at 1 µM. As for `C[C@H]1[C@H](C)CC[C@]2(C(=O)O)CC[C@]3(C)C(=CC[C@@H]4[C@@]5(C)CC[C@H](O)C(C)(C)[C@@H]5CC[C@]43C)[C@H]12` [URSOLIC ACID], the IC50 at Steryl-sulfatase [2] is 0.131 µM; on Steryl-sulfatase [3] it was 0.263 µM. For `Oc1ccc(C2COc3cc(O)ccc3C2)cc1` (centres undefined), in the series on MCF7 [1], the IC50 was 1 µM.

For the compound `O=c1cc(-c2ccccc2)oc2ccccc12` [FLAVONE], the IC50 in the series on MCF7 [1] is 0.3 µM. For `O=C(/C=C/c1ccc(O)cc1)c1ccc(O)cc1O` [ISOLIQUIRITIGENIN], the half-inhibitory concentration (IC50) (in [4]; with MDA-MB-231) was 25 µM in each case. For the compound `O=c1cc(-c2ccccc2)oc2cc(O)c(O)c(O)c12` [BAICALEIN], the IC50 in the series on MCF7 [5] is 5.3 µg/mL (≈ 19.6 µM). For the compound `COc1ccc(-c2cc(=O)c3c(OC)c(OC)c(OC)cc3o2)cc1OC` [SINENSETIN], the concentration for half-maximal inhibition (IC50) in [6] was determined as 65 µM; in the series on MDA-MB-468, 0.2 µM.

Consider `COc1cc(O)c(CC=C(C)C)c(O)c1C(=O)/C=C/c1ccc(O)cc1` [XANTHOHUMOL], for which the half-inhibitory concentration (IC50) in the series with MCF7 [7] turned out to be 13.3 µM; in the series with MCF7 [8], 3.47 µM. With `O=c1cc(-c2ccc(O)c(O)c2)oc2cc(O)cc(O)c12` [LUTEOLIN], the half-maximal inhibitory concentration (IC50) in the series on MCF7 [1] was found to be 5 µM. `O=c1c(O)c(-c2ccccc2)oc2cc(O)cc(O)c12` [GALANGIN]: the IC50 in the series on MCF7 [5] came to 4.2 µg/mL (≈ 15.5 µM).

Consider `O=C(CCc1ccc(O)cc1)c1c(O)cc(O)cc1O` [PHLORETIN], for which, in the series on MCF7 [1], the half-inhibitory concentration (IC50) stood at 7 µM. Take `Oc1ccc(/C=C/c2cc(O)cc(O)c2)cc1` [RESVERATROL]: in series [9], the bioavailability is 20%. On to `O=c1c(-c2ccc(O)cc2)coc2cc(O)ccc12` [DAIDZEIN], for which the IC50 was found to be 34 µM at Sulfotransferase 2A1 and 0.29 µM against Sulfotransferase 1A1. Turning to `O=c1c(O)c(-c2ccc(O)cc2)oc2cc(O)cc(O)c12` [KAEMPFEROL], the results for the IC50 at Sulfotransferase 2A1, against Sulfotransferase 1A1 and in the series on MCF7 [1] were 34 µM, 0.29 µM and 50 µM, respectively. Turning to `C=C[C@@H](/C=C\c1ccc(O)cc1)c1ccc(O)cc1`, the half-inhibitory concentration (IC50) at Estrogen receptor was 0.06 µM. Consider `O=c1c(O)c(-c2ccc(O)c(O)c2)oc2cc(O)cc(O)c12` [QUERCETIN], for which the figures for the IC50 against Sulfotransferase 2A1, on Sulfotransferase 1A1 and in the series on MCF7 [1] were 34 µM, 0.29 µM and 5 µM, respectively.

`C=C[C@H](/C=C\c1ccc(O)cc1)c1ccc(O)cc1` [NYASOL] registered an IC50 at Estrogen receptor of 0.4 µM. As to `COc1cc(O)c2c(=O)cc(-c3ccc(O)cc3)oc2c1` [GENKWANIN], the IC50 stood at 75 µM in [6] and 1.6 µM in the series on MDA-MB-468. For `O=C(O)[C@H]1O[C@@H](Oc2cc(O)c3c(=O)cc(-c4ccc(O)cc4)oc3c2)[C@H](O)[C@@H](O)[C@@H]1O` the same measures were 42 µM and 13 µM. Consider `O=C1C[C@@H](c2ccc(O)cc2)Oc2cc(O)cc(O)c21` [NARINGENIN], for which, in the series on MCF7 [1], the IC50 stood at 0.3 µM.

Take `COc1cc2c(c(O)c1C(=O)/C=C/c1ccc(O)cc1)C=CC(C)(C)O2` [XANTHOHUMOL C]: the IC50 in the series on MCF7 [7] was determined as 15.7 µM; in the series with MCF7 [8] it was 6.87 µM.

The compound `COc1cc(/C=C/c2ccc(O)cc2)cc(OC)c1` [PTEROSTILBENE] had a bioavailability in series [10] of 80%. With `O=c1c(-c2ccc(O)cc2)coc2cc(O)cc(O)c12` [GENISTEIN], the figures for the IC50 at Sulfotransferase 2A1 and on Sulfotransferase 1A1 were 34 µM and 0.29 µM, respectively.

Regarding `COc1ccc(-c2coc3cc(O)cc(O)c3c2=O)cc1` [BIOCHANIN], the IC50 in the series with MCF7 [11] was determined as 40 µg/mL (≈ 141 µM); in the series with MCF7 [12], 40 µg/mL (≈ 141 µM); in the series with MCF7 [1], 10 µM.

With `COc1cc(O)c(CC=C(C)C)c2c1C(=O)CC(c1ccc(O)cc1)O2` (centres undefined) [ISOXANTHOHUMOL], the IC50 in the series on MCF7 [7] stood at 15.3 µM; in the series with MCF7 [8] it was 4.69 µM. As to `O=c1oc2cc(O)ccc2c2oc3cc(O)ccc3c12` [COUMESTROL], the values for the IC50 in the series with MCF7 [1] and with MCF7 [13] were 0.04 µM and 50 µM, respectively. As to `C#C[C@]1(O)CC[C@H]2[C@@H]3CCc4cc(OC)ccc4[C@H]3CC[C@@]21C` [MESTRANOL], the IC50 in the series on MCF7 [1] came to 0.04 µM.
